In patent US12048700B2 (Merck Patent GmbH, priority 2017, dated 2024):
Where two headings read alike, the source gives them in different places.

Key:
[1] = 25° C./60% rh
[2] = DVS; for removal of water on drying (in words): ten hours of nitrogen purge at room temperature
Experimental: DVS measurements are typically performed at 25° C. with an SPS11-100n “Sorptions Prüfsystem” from ProUmid (formerly “Projekt Messtechnik”), August-Nagel-Str. 23, 89079 Ulm (Germany).

[3] = 40° C./75% rh
[4] = Water content of the sample before DVS (TG-FTIR mass loss or Karl Fischer titration)
Experimental: Thermogravimetric measurements were carried out with a Netzsch Thermo-Microbalance TG 209 coupled to a Bruker FTIR Spectrometer Vector 22 (sample pans with a pinhole, N2 atmosphere, heating rate 10 K/min).
A sample of crystalline monosodium salt according to at least one of the previous examples is investigated by thermogravimetry coupled with infrared spectroscopy (TG-FTIR). Thermogravimetric measurements were done with a sample mass of about 6 mg. […] The same sample is now examined by dynamic vapor sorption analysis (DVS). About 20 mg of sample are placed put into an aluminum sample pan. Humidity change rates of 5% per hour were used. […] The sample was placed on an aluminum holder on top of a microbalance and allowed to equilibrate at 50% RH before starting the pre-defined humidity program in the following way: • (1) 2 hours at 50% relative humidity • (2) 50→0% relative humidity (5%/hour); 10 hours at 0% relative humidity • (3) 0→75% relative humidity (5%/hour); 5 hours at 75% relative humidity • (4) 75→0% relative humidity (5%/hour); 10 hours at 0% relative humidity • (5) 0→50% relative humidity (5%/hour); 2 hours at 50% relative humidity
A sample of crystalline calcium salt of MTHF is examined by Karl Fischer titration to evaluate the water content. […]

[5] = room temperature; suspension stirred 30 minutes with excess solid
[6] = room temperature; purified/de-ionized water; vigorously agitated and briefly sonicated
Experimental: 2.535 ml of purified/de-ionized water (for instance water for chromatography) is added to the solid using an adjustable volumetric pipette. The mixture is vigorously agitated at room temperature and briefly sonicated.

SMILES | 5-methyl-(6S)-tetrahydrofolic acid content ([1]; 0 months) | 5-methyl-(6S)-tetrahydrofolic acid content ([1]; 3 months) | 5-methyl-(6S)-tetrahydrofolic acid content ([1]; 6 months) | 5-methyl-(6S)-tetrahydrofolic acid content ([1]; 9 months) | 5-methyl-(6S)-tetrahydrofolic acid content ([1]; 12 months) | hygroscopicity compared with the calcium salt (in words) ([2]; relative humidity 20% to 75%) | removal of water on drying (in words) ([2]; listed as crystalline monosodium salt, monosodium salt) | removal of water on drying (in words) ([2]; listed as crystalline sodium salt of 5-methyl-(6S)-tetrahydrofolic acid, monosodium salt) | 5-methyl-(6S)-tetrahydrofolic acid content ([3]; 0 months) | 5-methyl-(6S)-tetrahydrofolic acid content ([3]; 3 months) | 5-methyl-(6S)-tetrahydrofolic acid content ([3]; 6 months) | 5-methyl-(6S)-tetrahydrofolic acid content ([3]; 9 months) | 5-methyl-(6S)-tetrahydrofolic acid content ([3]; 12 months) | mass loss at 200° C. (TG-FTIR), essentially the water content ([4]; after drying in air at room temperature, sample mass about 6 mg) | removal of water on drying (in words) [2] | solubility in water [5] | water content (Karl Fischer titration) ([4]; sample before DVS) | kinetic solubility in water [6]
CN1c2c(nc(N)[nH]c2=O)NC[C@@H]1CNc1ccc(C(=O)N[C@@H](CCC(=O)[O-])C(=O)O)cc1.[Na+] [5-methyl-(6S)-tetrahydrofolic acid monosodium salt] | 94.7 % w/w | 93.0 % w/w | 94.2 % w/w | 95.6 % w/w | 94.1 % w/w | less hygroscopic | all the water of the sample is essentially removed | water can essentially be removed | 94.7 % w/w | 92.7 % w/w | (81.8)^1 % w/w | 94.8 % w/w | 92.9 % w/w | about 1.3% |  |  |  | 
CN1c2c([nH]c(N)nc2=O)NC[C@@H]1CNc1ccc(C(=O)N[C@@H](CCC(=O)[O-])C(=O)[O-])cc1.[Ca+2] [calcium salt of 5-methyl-(6S)-tetrahydrofolic acid] | 80.7 % w/w | 79.0 % w/w | 77.7 % w/w | 78.5 % w/w | 77.9 % w/w |  |  |  | 80.7 % w/w | 78.5 % w/w | 78.0 % w/w | 78.8 % w/w | 77.8 % w/w |  | less than half of the water can be removed | 7100 µg/mL | 12.4% | smaller than 10 mg per 1 ml of water
